According to article PMC3388869, “High-affinity multivalent wheat germ agglutinin ligands by one-pot click reaction” (Beilstein Journal of Organic Chemistry, 2012):
Like-named read-outs stand apart in the source and are kept apart here.

Columns and labels:
[1] = target: T1, wheat germ agglutinin (WGA) (Triticum aestivum, UniProt P10969); test: enzyme-linked lectin assay (ELLA): inhibition of binding of HRP-labeled WGA to covalently immobilized GlcNAc; parameters: species or system Triticum vulgaris; settings: for β (relative inhibitory potency): referenced to N,N'-diacetylchitobiose (β = 1); for fold lower IC50 value than GlcNAc: relative to GlcNAc
T1 sequence (P10969 1-171 limits assumed): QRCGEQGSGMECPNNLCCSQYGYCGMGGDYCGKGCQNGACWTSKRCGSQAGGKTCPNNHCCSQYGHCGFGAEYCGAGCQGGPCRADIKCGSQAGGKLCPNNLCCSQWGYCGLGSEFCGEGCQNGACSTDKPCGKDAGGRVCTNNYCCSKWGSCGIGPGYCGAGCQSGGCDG
Experimental: Binding potencies of compounds C1–C6, GlcNAc, and N,N’-diacetylchitobiose were determined by an ELLA employing covalently immobilized GlcNAc as a reference ligand, as described recently. GlcNAc-coated microtiter plates were incubated with mixtures of horseradish-peroxidase-labeled WGA (HRP-WGA) and synthetic WGA ligands in varying concentrations. After incubation, the plates were washed and the remaining HRP-WGA bound to the microtiter plates was quantified by a HRP-catalyzed color reaction. From these curves the concentrations at which the binding of HRP–WGA to GlcNAc is reduced by 50% (IC50 values) were determined as a measure of the potency of the synthesized inhibitors (Table 2). Also shown in Table 2 are the relative inhibitory potencies (β values) referenced to N,N’-diacetylchitobiose (β = 1).

[2] = tested on: WGA; parameters: method as in PMID 1472499; settings: WGA–ligand interaction; cited from earlier work
[3] = inhibition of binding of HRP-labeled WGA to covalently immobilized GlcNAc, read-out: IC50

| Structure (SMILES) | IC50 [1, 3] | β (relative inhibitory potency) [1] | relative potency per chitobiose residue ([1]; relative to N,N'-diacetylchitobiose, per chitobiose residue) | IC50 ([1]; calculated per contained chitobiose, read-out: IC50 per contained chitobiose) | fold increased inhibition potency over the best divalent ligand C4 ([1]; relative to C4) | fold lower IC50 value than GlcNAc [1] | association constant K [2] |
| --- | --- | --- | --- | --- | --- | --- | --- |
| CC(=O)N[C@H]1[C@H](OCc2cn(Cc3ccccc3)nn2)O[C@H](CO)[C@@H](O[C@@H]2O[C@H](CO)[C@@H](O)[C@H](O)[C@H]2NC(C)=O)[C@@H]1O [C1] | 290 µM | 2.1 |  |  |  |  |  |
| CC(=O)N[C@H]1[C@H](OCc2cn(Cc3cccc(Cn4cc(CO[C@@H]5O[C@H](CO)[C@@H](O[C@@H]6O[C@H](CO)[C@@H](O)[C@H](O)[C@H]6NC(C)=O)[C@H](O)[C@H]5NC(C)=O)nn4)c3)nn2)O[C@H](CO)[C@@H](O[C@@H]2O[C@H](CO)[C@@H](O)[C@H](O)[C@H]2NC(C)=O)[C@@H]1O [C2] | 1.3 µM | 480 |  |  |  |  |  |
| CC(=O)N[C@H]1[C@H](OCc2cn(Cc3ccc(Cn4cc(CO[C@@H]5O[C@H](CO)[C@@H](O[C@@H]6O[C@H](CO)[C@@H](O)[C@H](O)[C@H]6NC(C)=O)[C@H](O)[C@H]5NC(C)=O)nn4)cc3)nn2)O[C@H](CO)[C@@H](O[C@@H]2O[C@H](CO)[C@@H](O)[C@H](O)[C@H]2NC(C)=O)[C@@H]1O [C3] | 1.9 µM | 330 |  |  |  |  |  |
| CC(=O)N[C@H]1[C@H](OCc2cn(CCCOCCCCOCCCn3cc(CO[C@@H]4O[C@H](CO)[C@@H](O[C@@H]5O[C@H](CO)[C@@H](O)[C@H](O)[C@H]5NC(C)=O)[C@H](O)[C@H]4NC(C)=O)nn3)nn2)O[C@H](CO)[C@@H](O[C@@H]2O[C@H](CO)[C@@H](O)[C@H](O)[C@H]2NC(C)=O)[C@@H]1O [C4] | 0.6 µM |  | 500 |  |  |  |  |
| CC(=O)N[C@H]1[C@H](OCc2cn(CCCOCCOCCOCCCn3cc(CO[C@@H]4O[C@H](CO)[C@@H](O[C@@H]5O[C@H](CO)[C@@H](O)[C@H](O)[C@H]5NC(C)=O)[C@H](O)[C@H]4NC(C)=O)nn3)nn2)O[C@H](CO)[C@@H](O[C@@H]2O[C@H](CO)[C@@H](O)[C@H](O)[C@H]2NC(C)=O)[C@@H]1O [C5] | 0.72 µM |  |  |  |  |  |  |
| CC(=O)N[C@H]1[C@H](OCc2cn(CCN(CCn3cc(CO[C@@H]4O[C@H](CO)[C@@H](O[C@@H]5O[C@H](CO)[C@@H](O)[C@H](O)[C@H]5NC(C)=O)[C@H](O)[C@H]4NC(C)=O)nn3)CCn3cc(CO[C@@H]4O[C@H](CO)[C@@H](O[C@@H]5O[C@H](CO)[C@@H](O)[C@H](O)[C@H]5NC(C)=O)[C@H](O)[C@H]4NC(C)=O)nn3)nn2)O[C@H](CO)[C@@H](O[C@@H]2O[C@H](CO)[C@@H](O)[C@H](O)[C@H]2NC(C)=O)[C@@H]1O [C6] | 0.22 µM | 2800 |  | 0.66 µM | 2.8 | 230000 |  |
| CC(=O)N[C@@H]1[C@@H](O)[C@H](O)[C@@H](CO)O[C@H]1O [GlcNAc, N-acetylglucosamine, reference compound] | 51000 µM | 1/82 |  |  |  |  | 2 × 10^2 to 1.3 × 10^3 M^–1 |
| CC(=O)N[C@H]1[C@H](O[C@H]2[C@H](O)[C@@H](NC(C)=O)C(O)O[C@@H]2CO)O[C@H](CO)[C@@H](O)[C@@H]1O (stereo partly drawn) [N,N'-diacetylchitobiose, reference compound] | 620 µM | 1 |  |  |  | 82 | 5 × 10^3 to 2 × 10^4 M^–1 |
